One block for each compound: values may come before it.
Key:
cisplatin-induced emesis = cisplatin-induced emesis in the ferret; type: in vivo; conditions: for anti-emetic activity: inhibition of cisplatin-induced emesis: cisplatin 200 mg/m^2 i.p., compound 3 mg/kg i.p. at first retch
Experimental: In this model of emesis the onset of retching and vomiting occurs approximately 1 hour after the administration of cisplatin (200 mg/m^2 i.p.). At the first retch in response to cisplatin, the test compound was administered (e.g. i.p., p.o., i.v., s.c., i.c.v.) and its effect on emesis determined by comparison with appropriate controls (e.g. water).

NK1 receptor = NK1 receptor (Homo sapiens, UniProt P25103); test: NK1 receptor antagonist activity (enantiomer comparison); conditions: relative to the (2S,3S) enantiomer
[1] = system: emesis induced by cyclophosphamide; test: cyclophosphamide-induced emesis, test compound given simultaneously with the emetogen; type: in vivo, ferret; conditions: compound 3 mg/kg i.p. simultaneously with cyclophosphamide 200 mg/kg i.p.
[2] = system: emesis induced by morphine; test: morphine-induced emesis, test compound given simultaneously with the emetogen; type: in vivo, ferret; conditions: compound 3 mg/kg i.p. simultaneously with morphine 0.5 mg/kg s.c.
[3] = system: emesis induced by ipecacuanha; test: ipecacuanha-induced emesis, test compound given simultaneously with the emetogen; type: in vivo, ferret; conditions: compound 3 mg/kg i.p. simultaneously with ipecacuanha 2 mg/kg p.o.
[4] = system: emesis induced by copper sulphate; test: copper sulphate-induced emesis, test compound given simultaneously with the emetogen; type: in vivo, ferret; conditions: compound 3 mg/kg i.p. simultaneously with copper sulphate 40 mg/kg i.p.

Sequence of NK1 receptor (P25103 whole entry, species assumed): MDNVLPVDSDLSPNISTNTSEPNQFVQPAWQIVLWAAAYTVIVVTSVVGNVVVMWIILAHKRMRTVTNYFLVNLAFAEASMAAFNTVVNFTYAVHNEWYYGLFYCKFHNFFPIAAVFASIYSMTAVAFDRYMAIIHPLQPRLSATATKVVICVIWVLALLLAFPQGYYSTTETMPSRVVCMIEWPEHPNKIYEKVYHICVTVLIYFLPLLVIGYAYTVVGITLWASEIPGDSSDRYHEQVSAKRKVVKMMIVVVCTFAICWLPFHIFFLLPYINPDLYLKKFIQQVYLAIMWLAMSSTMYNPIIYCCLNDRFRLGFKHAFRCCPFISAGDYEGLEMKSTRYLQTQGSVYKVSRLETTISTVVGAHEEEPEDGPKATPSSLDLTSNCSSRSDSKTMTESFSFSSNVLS

fold less active as an NK1 receptor antagonist than the (2S,3S) enantiomer (NK1 receptor): 1000 fold
Compound: COc1ccccc1CN[C@H]1CCCN[C@H]1c1ccccc1 (relative stereo) [(2R,3R) enantiomer, cis-3-(2-methoxybenzylamino)-2-phenyl piperidine]
anti-emetic activity: inhibition of cisplatin-induced emesis (cisplatin-induced emesis; 3 mg/kg): inactive

Compound: COc1ccccc1CN[C@H]1CCCN[C@H]1c1ccccc1 (racemic) [(±) cis-3-(2-methoxybenzylamino)-2-phenyl piperidine]
anti-emetic activity: inhibition of cisplatin-induced emesis (cisplatin-induced emesis): exhibited anti-emetic activity
anti-emetic activity against cyclophosphamide [1]: exhibited anti-emetic activity
anti-emetic activity against morphine [2]: exhibited anti-emetic activity
anti-emetic activity against ipecacuanha [3]: exhibited anti-emetic activity
anti-emetic activity against copper sulphate [4]: exhibited anti-emetic activity

Compound: COc1ccccc1CN[C@H]1CCCN[C@H]1c1ccccc1 (relative stereo) [(2S,3S) enantiomer, cis-3-(2-methoxybenzylamino)-2-phenyl piperidine]
anti-emetic activity: inhibition of cisplatin-induced emesis (cisplatin-induced emesis; 3 mg/kg): inhibited

Compound: COc1ccccc1CNC1C2CCN(C2)C1C(c1ccccc1)c1ccccc1 (stereo not drawn) [Example 1, (exo,exo)-2-(Diphenylmethyl)-N-[(2-methoxyphenyl)methyl]-1-azabicyclo[2.2.1]heptan-3-amine]
inhibition of cisplatin-induced emesis (cisplatin-induced emesis; compound 5 mg/kg i.p.): inhibited
